Laboratory results as given in patent US20230076411A1, “LASSO PEPTIDES FOR TREATMENT OF CANCER” (Lassogen, Inc., priority 2020, published 2023).
Positions of bridges follow the written chain, without caps; N, C: chain ends. Non-standard residues stand in square brackets, D forms with d. Residues, ends and D or L forms follow the SMILES beside them. No end group written: not given here. Trp(7-OH) = N[C@@H](Cc1c[nH]c2c(O)cccc12)C(=O)O; 2Nal = N[C@@H](Cc1ccc2ccccc2c1)C(=O)O

Legend:
[1] = tested on: human melanoma cell lines RPMI-7951, SK MEL 28, SK MEL 31, SK MEL 24, A375; experiment: Melanoma cell growth inhibition (Cell Titer-Glo 2.0 Luminescent Cell Viability Assay); assay type: cell-based; details: 72 hours incubation with compounds
From the text: The Cell Titer-Glo® 2.0 Luminescent Cell Viability Assay is a sensitive homogeneous method to determine the number of viable cells in culture. Detection is based on using the luciferase reaction to measure the amount of ATP from viable cells. The amount of ATP in cells correlates with cell viability. Within minutes after a loss of membrane integrity, cells lose the ability to synthesize ATP, and endogenous ATPases destroy any remaining ATP; thus the levels of ATP fall precipitously. The Cell Titer-Glo® 2.0 Reagent does three things upon addition to cells. It lyses cell membranes to release ATP; it inhibits endogenous ATPases, and it provides luciferin, luciferase and other reagents necessary to measure ATP using a bioluminescent reaction. The unique properties of a proprietary stable luciferase. There is a linear relationship (r2=0.99) between the luminescent signal and the number of cells from 0 to 50.000 cells per well. […]
Conditions: 37° C., air 95%; HEPA-filtered carbon dioxide (CO2) 5%, humidified atmosphere. • Cells are grown in 175 cm^2 flasks to 80-90% of confluency. • Culture media are aspirated and cell layer is briefly rinsed with Versen solution to remove all traces of serum. • 2 mL of Accutase is added to cells. • Flasks are returned to incubator for 5 min to allow cell detachment. • Add 6.0 mL of complete growth medium. • Single cell suspension is created by gently pipetting. • Cells are counted using a Hematocytometer and a suspension with the desired cell concentration is prepared. […]
Stock solutions (70 μL) are diluted with cell culture media to produce 500× serial dilutions and 10 of final compound dilutions are added to cells in assay plates to screen a series of 10 doses starting at […]. […] Luminescence intensity is measured for each well using the Tecan M 1000 microplate reader after 5 min of incubation with the Cell Titer-Glo® 2.0. The number of viable cells in culture is determined based on quantitation of the ATP present in each culture well. […] P values are calculated by using the Student's t test for absolute values. […]

[2] = target: endothelin A receptor (ETAR) (Homo sapiens, UniProt P25101); experiment: ETAR IC50 (nM)
From the text: Table printed on a drawing sheet, FIG. 3
Head of the field: ETAR IC50 (nM)

[3] = target: T1, endothelin B receptor (ETBR) (Homo sapiens, UniProt P24530); experiment: IC50 of BQ-788 against ETAR and ETBR (FIG. 3B); assay type: binding; details: from IC50 against ETAR and ETBR
T1 sequence (P24530 27-442): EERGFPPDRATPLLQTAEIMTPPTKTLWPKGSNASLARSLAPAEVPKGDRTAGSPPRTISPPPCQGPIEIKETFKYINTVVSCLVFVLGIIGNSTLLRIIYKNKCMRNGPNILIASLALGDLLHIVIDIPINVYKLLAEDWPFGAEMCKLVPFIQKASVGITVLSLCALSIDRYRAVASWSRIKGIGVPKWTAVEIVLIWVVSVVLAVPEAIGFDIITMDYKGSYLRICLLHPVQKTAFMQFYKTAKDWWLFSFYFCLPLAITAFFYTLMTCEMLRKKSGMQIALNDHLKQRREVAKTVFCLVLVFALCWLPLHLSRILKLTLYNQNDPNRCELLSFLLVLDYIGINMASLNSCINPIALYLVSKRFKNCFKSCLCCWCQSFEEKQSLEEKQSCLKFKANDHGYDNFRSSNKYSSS

[4] = target: human recombinant endothelin B receptor (ETBR) (human) (UniProt P24530); experiment: not stated on the sheet or in the legend; the receptor source, species and competing ligand are not given, and the value may come from the literature
[5] = target: T2, ETBR receptors (Homo sapiens, UniProt P24530); details: physiological concentrations; cited from earlier work
T2 sequence (P24530 27-442): T1 sequence (P24530 27-442)

[6] = target: T3, human recombinant ETB receptor (ETBR) (Homo sapiens, UniProt P24530); experiment: ET-1 Receptor Binding Assay ([125I]ET-1, CHO cell membranes expressing ETBR)
T3 construct: expressed in transfected cells; host or cells: CHO cells, stably transfected (vector pME18S-FL3); membranes prepared from them
T3 sequence (P24530 27-442): T1 sequence (P24530 27-442)
Experimental: Preparation of Membranes. CHO cell membranes are prepared by washing ETAR- or ETBR-transfected cells with phosphate buffered saline and centrifugation. […] The homogenates are centrifuged at 8,000×g for 10 minutes and supernatants are then centrifuged at 40,000×g for 1 hour at 4° C. The pellets are homogenized in buffer A and recentrifuged at 40,000×g for 1 hour.
(§1) The glass filters are washed three times with cold 50 mM Tris-HCl buffer containing 1 mM EDTA. The radioactivity on the washed filter is measured by using a Packard γ counter.

[7] = target: T4, human recombinant endothelin B receptor (ETBR) (human, UniProt P24530 27-442); experiment: displacement of [125I]ET-1 from CHO-ETBR membranes, filtration
T4 construct: whole, on cells; The assay used membranes prepared from CHO-ETBR cells; also called ETB receptor; endothelin receptor type B
T4 sequence (looked up): T1 sequence (P24530 27-442)
Experimental: Preparation of Membranes. CHO cell membranes are prepared by washing ETAR- or ETBR-transfected cells with phosphate buffered saline and centrifugation. The resulting cell pellets are homogenized with a polytron (settings 8 for 30 seconds×2) in 5 volumes of buffer A containing 1 mM NaHCO₃, 5 mM EDTA (pH 8.3), 5 μg/ml Leupeptin, 5 μg/ml Pepstatin A, and 40 μM phenylmethylsulfonyl fluoride. The homogenates are centrifuged at 8,000×g for 10 minutes and supernatants are then centrifuged at 40,000×g for 1 hour at 4° C. The pellets are homogenized in buffer A and recentrifuged at 40,000×g for 1 hour. The resulting pellets are homogenized in buffer A supplemented with 130 mM NaCl, 5 mM Na₂HPO₄, and 1.5 mM KH₂PO₄ and stored at −70° C.
as §1

With `CC(C)C[C@@H]1NC(=O)[C@@H](C(C)C)NC(=O)[C@@H]2CCCN2C(=O)[C@@H](CC(=O)O)NC(=O)[C@@H](Cc2c[nH]c3ccccc23)NC1=O` [BQ-123] (cyclo(L[dW][dD]P[dV])) the “growth of all tested human melanoma cell lines” value (shortened to “growth”) [1] was “not”.

In the case of `CCCC[C@@H](NC(=O)[C@@H](Cc1cn(C(=O)OC)c2ccccc12)NC(=O)[C@H](CC(C)(C)C)NC(=O)N1[C@H](C)CCC[C@@H]1C)C(=O)O` [BQ-788], the IC50 [2] is reported as 280 nM, the “binding selectivity ETBR over ETAR” value [3] is reported as “selectively binds to ETBR over ETAR” and the “growth” value [1] is reported as “inhibited”.

With BQ-788 (peptide) the IC50 [4] was 1.2 nM.

In the case of “ET-2: cognate endothelin ligand, 21-amino acid peptide (CSCSSWLDKECVYFCHLDIIW; ends and bridges not checked; cysteine pairing not given here; UniProt P20800 49-69, looked up)”, the Kd [5] is given as 0.015 nM.

For GNWHGTAPDWFFNYYW [Lasso 1], the “growth” value [1] was “inhibited”.

In the case of “MTEQSEQTPAEYIPPMLVEVGEFTEDTLGNWHGTAPDWFFNYYW [Lasso 18]”, the IC50 [6] is reported as greater than 5000 nM.

Molecule “MTEQSEQTPAEYIPPMLVEVGEFTEDTLGNWHGTSPDWFFNYYW [Lasso 20]” has an IC50 [6] greater than 5000 nM.

Work on GNWHGTAPDWFFNYY[2Nal] (lactam N-9, also called Lasso 54) [lasso peptide having primary sequence of SEQ ID NO: 54] yielded an IC50 [7] of 6.3 nM.

For GNWHGTSPDWFFNYY[Trp(7-OH)] (lactam N-9, also called Lasso 4) [lasso peptide having primary sequence of SEQ ID NO: 4], the IC50 [7] was 8 nM.

In the case of GNWHGTAPDWFFNYYNIIW (lactam N-9, also called Lasso 48) [lasso peptide having primary sequence of SEQ ID NO: 48], the IC50 [7] is reported as greater than 70 nM.
